Data from patent publication US20260285853A1, “COMPOUNDS AND METHODS FOR MODULATING SPLICING” (REMIX THERAPEUTICS INC., priority 2023, published 2026).
Like-named read-outs stand apart in the source and are kept apart here.

Assays:
Assay type in all cases: cell-based
MYB mRNA [1] = experiment: Gene panel canonical junction qPCR assay, decrease in CJ mRNA, Table 3
In short: (§1)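 IC50 denotes the concentration giving 50% decrease in canonical-junction mRNA, fitted by 4-parameter logistic to percentage response derived from ΔΔCt versus housekeeping gene and DMSO control. Cells (A673 or K562) exposed 24 h to 11-point 3-fold serial dilutions from 10 uM top, DMSO ≤0.25%; junction-spanning primer/probe qPCR.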

HTT mRNA [2] = experiment: as above
In short: as §1

MYB mRNA [3] = experiment: Splicing RT-qPCR assay (THP), Table 2A
[4] = test system: SH-SY5Y (human neuroblastoma) cells; experiment: Cell viability, Cell Titer Glo 2.0 assay; details: read-out: Viability SHSY5Y.3 GI50
In short: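 Viability was read by CellTiter-Glo 2.0 luminescence after a 72-hour compound exposure at 37° C. under 5% CO2. Cells were in IMDM plus 10% FBS containing 0.1% DMSO, and medium-only wells gave the blank.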

HTT mRNA [5] = experiment: Splicing RT-qPCR assay (THP), Table 2A
[6] = decrease in canonical junction (CJ) mRNA, gene panel qPCR, Table 3
[7] = Table 2A (THP), AJ mRNA increase, read-out: MYB AJ (increase in alternative junction mRNA, AC50)
[8] = Table 2A (THP), CJ mRNA decrease, read-out: MYB CJ (decrease in canonical junction mRNA, IC50)
[9] = Table 2A (THP), AJ mRNA increase, read-out: HTT AJ (increase in alternative junction mRNA, AC50)
[10] = Table 2A (THP), CJ mRNA decrease, read-out: HTT CJ (decrease in canonical junction mRNA, IC50)
[11] = decrease in CJ mRNA levels, canonical junction qPCR, gene panel
[12] = Table 2A, THP, MYB alternative junction (AJ) mRNA, read-out: MYB AJ (AC50, increase in alternative junction mRNA)
[13] = Table 2A, THP, MYB canonical junction (CJ) mRNA, read-out: MYB CJ (IC50, decrease in canonical junction mRNA)
[14] = Table 2A, THP, HTT alternative junction (AJ) mRNA, read-out: HTT AJ (AC50, increase in alternative junction mRNA)
[15] = Table 2A, THP, HTT canonical junction (CJ) mRNA, read-out: HTT CJ (IC50, decrease in canonical junction mRNA)

| IC50 (MYB mRNA [1]; [6]) [nM] | IC50 (HTT mRNA [2]; [6]) [nM] | IC50 (MYB mRNA [3]; [8]) [nM] | GI50 [4] [nM] | IC50 (HTT mRNA [5]; [10]) [nM] | IC50 (MYB mRNA [1]; [11]) [nM] | IC50 (HTT mRNA [2]; [11]) [nM] | IC50 (MYB mRNA [3]; [13]) [nM] | IC50 (HTT mRNA [5]; [15]) [nM] | SMILES | AC50 (MYB mRNA [3]; [7]) [nM] | AC50 (HTT mRNA [5]; [9]) [nM] | AC50 (MYB mRNA [3]; [12]) [nM] | AC50 (HTT mRNA [5]; [14]) [nM] |
| --- | --- | --- | --- | --- | --- | --- | --- | --- | --- | --- | --- | --- | --- |
| < 100 | > 10000 | < 100 | 100 to 1000 | > 10000 |  |  |  |  | Cc1cn2cc(NC(=O)c3c(F)cc(N4CCC(NC5CCC5)CC4)c4cn(C)nc34)nc2c(C)n1 [Compound 349, 4-[4-(cyclobutylamino)-1-piperid-yl]-N-(6,8-dimethyl-imidazo [1,2-a]-pyrazin-2-yl)-6-fluoro-2-methyl-indazole-7-carbox-amide] | < 100 | > 10000 |  |  |
|  |  |  | 1000 to 10000 |  | < 100 | 1000 to 10000 | < 100 | 1000 to 10000 | CCNC1CCN(c2cc(F)c(C(=O)Nc3cn4ccnc4nc3OC)c3nn(C)cc23)CC1 [Compound 692, 4-[4-(ethylamino)-1-piperidyl]-6-fluoro-N-(7-methoxyimidazo[1,2-a]pyrimidin-6-yl)-2-methyl-indazole-7-carboxamide] |  |  | < 100 | 100 to 1000 |
|  |  |  | 1000 to 10000 |  | 1000 to 10000 | > 10000 | 1000 to 10000 | > 10000 | Cn1cc2cc(NC(=O)c3ccc(N4CCC(NC5CC5)CC4)c4cn(C)nc34)cc(Cn3ccnn3)c2n1 [Compound 823] |  |  | 100 to 1000 | > 10000 |
|  |  |  | 1000 to 10000 |  | > 10000 | > 10000 | > 10000 | > 10000 | COc1cc2nn(C)cc2cc1NC(=O)c1cc(C)c(N2CCC(NC3CC3)CC2)c2cn(C)nc12 [Compound 696] |  |  | > 10000 | > 10000 |
|  |  |  | 1000 to 10000 |  | 100 to 1000 | 1000 to 10000 | 100 to 1000 | 1000 to 10000 | COc1cc2nn(C)cc2cc1NC(=O)c1ccc(N2CCC(NC3CC3)CC2)c2cc(C)nn12 [Compound 619, 4-[4-(cyclopropylamino)-1-piperidyl]-N-(6-methoxy-2-methyl-indazol-5-y1)-2-methyl-pyrazolo[1,5-a]-pyridine-7-carboxamide] |  |  | 100 to 1000 | 1000 to 10000 |
| 1000 to 10000 | > 10000 | 1000 to 10000 | > 10000 | > 10000 |  |  |  |  | CCNC1CCN(c2cc(F)c(C(=O)Nc3nc4c(C)nc(C)cc4o3)c3nn(C)cc23)CC1 [Compound 380, N-(4,6-dimethyl-oxazolo-[4,5-c]-pyridin-2-y1)-4-[4-(ethylamino)-1-piperidy1]-6-fluoro-2-methyl-indazole-7-carboxamide] | 1000 to 10000 | > 10000 |  |  |
|  |  |  | 100 to 1000 |  | 100 to 1000 | > 10000 | 100 to 1000 | > 10000 | Cc1cc2c(N3CCC(NC4CC4)CC3)ccc(C(=O)Nc3cc(CNS(C)(=O)=O)c4nn(C)cc4c3)n2n1 [Compound 822] |  |  | 100 to 1000 | > 10000 |
| > 10000 | > 10000 | > 10000 | > 10000 | > 10000 |  |  |  |  | Cc1cn2cc(NC(=O)c3ccc(N4CCC(NC5CC5)CC4)c4cn(C)nc34)nc2c(-c2cnsc2)n1 [Compound 492, 4-[4-(cyclopropylamino)-1-piperidyl]-N-(8-isothiazol-4-yl-6-methyl-imidazo[1,2-a]-pyrazin-2-yl)-2-methyl-indazole-7-carboxamide] | > 10000 | > 10000 |  |  |
| < 100 | 1000 to 10000 | < 100 | 100 to 1000 | 1000 to 10000 |  |  |  |  | Cc1cn2cc(NC(=O)c3ccc(N4CCC(NC5(CF)CC5)CC4)c4cn(C)nc34)cc(F)c2n1 [Compound 378, 4-[4-[[1-(fluoromethyl)cyclopropyl]amino]-1-piperidyl]-N-(8-fluoro-2-methyl-imidazo[1,2-a]pyridin-6-yl)-2-methyl-indazole-7-carboxamide] | < 100 | 1000 to 10000 |  |  |
